The target in one test is T1, STAT5A (Homo sapiens, UniProt P42229).
T1 sequence (P42229 1-794): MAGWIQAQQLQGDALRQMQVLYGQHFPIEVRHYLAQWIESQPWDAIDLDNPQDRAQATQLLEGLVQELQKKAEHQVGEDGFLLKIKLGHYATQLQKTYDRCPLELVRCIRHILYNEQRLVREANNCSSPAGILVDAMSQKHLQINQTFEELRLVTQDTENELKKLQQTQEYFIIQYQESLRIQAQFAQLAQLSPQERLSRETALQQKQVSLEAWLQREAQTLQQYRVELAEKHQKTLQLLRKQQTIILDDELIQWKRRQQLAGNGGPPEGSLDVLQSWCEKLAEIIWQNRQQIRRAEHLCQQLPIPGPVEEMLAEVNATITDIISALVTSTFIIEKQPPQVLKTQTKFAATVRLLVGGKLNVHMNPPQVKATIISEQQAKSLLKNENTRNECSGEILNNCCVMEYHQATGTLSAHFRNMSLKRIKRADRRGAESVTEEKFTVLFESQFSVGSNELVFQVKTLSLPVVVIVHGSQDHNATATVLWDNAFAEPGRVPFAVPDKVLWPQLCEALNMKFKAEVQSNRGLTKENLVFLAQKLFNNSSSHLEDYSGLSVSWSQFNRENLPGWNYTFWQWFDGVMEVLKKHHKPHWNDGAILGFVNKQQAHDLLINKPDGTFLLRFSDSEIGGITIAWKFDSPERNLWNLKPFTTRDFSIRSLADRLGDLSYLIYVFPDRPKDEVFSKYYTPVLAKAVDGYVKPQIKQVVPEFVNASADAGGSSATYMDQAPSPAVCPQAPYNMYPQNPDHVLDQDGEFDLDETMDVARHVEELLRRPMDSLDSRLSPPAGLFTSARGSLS
Description: Fluorescence polarization (FP) binding assay, STAT5A. The settings on record: FP competition, 5 nM fluorescein-labeled tracer, 200 nM protein, PBS pH7.4. A digest of the protocol:
(§1)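 Fluorescence polarization is read after STAT5 or STAT6 protein (200 nM) and a fluorescein-labeled tracer (5 nM) equilibrate for 1 h at room temperature in DTT-containing PBS pH 7.4 with BGG and Tween-20. Inhibition constants are obtained by nonlinear curve fitting.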
For orientation: Polarisation of emitted light reports the rotation of a fluorescent probe.

A further test deals with T2, STAT6 protein (Homo sapiens, UniProt P42226).
T2 sequence (P42226 1-847): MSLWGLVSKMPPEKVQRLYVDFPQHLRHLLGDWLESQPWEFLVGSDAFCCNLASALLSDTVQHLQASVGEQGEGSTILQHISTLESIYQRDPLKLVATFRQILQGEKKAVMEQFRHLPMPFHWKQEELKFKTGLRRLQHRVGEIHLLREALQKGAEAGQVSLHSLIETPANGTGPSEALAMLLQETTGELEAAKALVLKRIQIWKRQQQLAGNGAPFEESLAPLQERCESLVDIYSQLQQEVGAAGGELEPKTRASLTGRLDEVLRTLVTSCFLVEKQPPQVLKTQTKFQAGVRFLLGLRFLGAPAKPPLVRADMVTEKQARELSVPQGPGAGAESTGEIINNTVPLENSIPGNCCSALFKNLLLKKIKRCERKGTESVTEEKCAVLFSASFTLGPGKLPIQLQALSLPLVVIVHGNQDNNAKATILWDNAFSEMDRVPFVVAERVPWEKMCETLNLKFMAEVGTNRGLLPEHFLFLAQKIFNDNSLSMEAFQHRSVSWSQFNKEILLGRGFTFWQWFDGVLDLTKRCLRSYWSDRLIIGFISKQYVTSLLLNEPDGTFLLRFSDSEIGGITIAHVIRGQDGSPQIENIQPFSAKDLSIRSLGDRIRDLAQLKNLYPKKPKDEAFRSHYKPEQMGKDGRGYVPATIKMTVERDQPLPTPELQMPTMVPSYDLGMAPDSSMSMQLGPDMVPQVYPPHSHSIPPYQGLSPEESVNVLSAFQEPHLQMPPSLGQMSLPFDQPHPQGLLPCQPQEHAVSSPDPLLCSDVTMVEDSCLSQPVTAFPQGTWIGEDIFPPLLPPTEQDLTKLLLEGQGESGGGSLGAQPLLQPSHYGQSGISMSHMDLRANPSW
Description: Fluorescence polarization (FP) binding assay, STAT6. To be noted: FP competition, 5 nM fluorescein-labeled tracer, 200 nM protein, PBS pH7.4; read-out: Binding STAT6. In outline:
as §1

pKi: −log10 of the molar value.

On to `CC(=O)N1CCN(C(=O)[C@@H]2CCCN2C(=O)[C@@H](NC(=O)c2cc3cc(C(F)(F)P(=O)(O)O)ccc3s2)C(C)(C)C)C[C@H]1c1ccccc1` [Compound 166, ((2-(((S)-1-((S)-2-((R)-4-acetyl-3-phenylpiperazine-1-carbonyl)pyrrolidin-1-yl)-3,3-dimethyl-1-oxobutan-2-yl)carbamoyl)benzo[b]thiophen-5-yl)difluoromethyl)phosphonic acid], for which the results for the pKi on STAT5A and on STAT6 protein were less than 5.00 and 5.00 to 6.00, respectively.
Turning to `CC(=O)N1CCN(C(=O)[C@@H]2CCCN2C(=O)[C@@H](NC(=O)c2cc3cc(C(F)(F)P(=O)(O)O)ccc3s2)C(C)(C)C)C[C@@H]1c1ccccc1` [Compound 167, ((2-(((S)-1-((S)-2-((S)-4-acetyl-3-phenylpiperazine-1-carbonyl)pyrrolidin-1-yl)-3,3-dimethyl-1-oxobutan-2-yl)carbamoyl)benzo[b]thiophen-5-yl)difluoromethyl)phosphonic acid], the pKi on STAT5A was less than 5.00; at STAT6 protein, 5.00 to 6.00.
On to `CC(C)(C)[C@H](NC(=O)c1cc2cc(C(F)(F)P(=O)(O)O)ccc2s1)C(=O)N1CCC[C@H]1C(=O)N1CCN(S(C)(=O)=O)[C@H](c2ccccc2)C1` [Compound 168, ((2-(((S)-3,3-dimethyl-1-((S)-2-((R)-4-(methylsulfonyl)-3-phenylpiperazine-1-carbonyl)pyrrolidin-1-yl)-1-oxobutan-2-yl)carbamoyl)benzo[b]thiophen-5-yl)difluoromethyl)phosphonic acid], for which the pKi was less than 5.00 on STAT5A and 5.00 to 6.00 at STAT6 protein.
On the same counts, the results for `CC(C)(C)[C@H](NC(=O)c1cc2cc(C(F)(F)P(=O)(O)O)ccc2s1)C(=O)N1CCC[C@H]1C(=O)N1CCN(S(C)(=O)=O)[C@@H](c2ccccc2)C1` [Compound 169, ((2-(((S)-3,3-dimethyl-1-((S)-2-((S)-4-(methylsulfonyl)-3-phenylpiperazine-1-carbonyl)pyrrolidin-1-yl)-1-oxobutan-2-yl)carbamoyl)benzo[b]thiophen-5-yl)difluoromethyl)phosphonic acid] are less than 5.00 and 5.00 to 6.00.
As to `CC(=O)N1CCN(C(=O)[C@@H](NC(=O)c2cc3cc(C(F)(F)P(=O)(O)O)ccc3s2)C(C)(C)C)[C@H](C(=O)N2CCO[C@H](c3ccccc3)C2)C1` [Compound 170, ((2-(((S)-1-((S)-4-acetyl-2-((R)-2-phenylmorpholine-4-carbonyl)piperazin-1-yl)-3,3-dimethyl-1-oxobutan-2-yl)carbamoyl)benzo[b]thiophen-5-yl)difluoromethyl)phosphonic acid], the pKi was 5.00 to 6.00 on STAT5A and 6.00 to 7.00 at STAT6 protein.
As to `CC(=O)N1CCN(C(=O)[C@@H](NC(=O)c2cc3cc(C(F)(F)P(=O)(O)O)ccc3s2)C(C)(C)C)[C@H](C(=O)N2CCO[C@@H](c3ccccc3)C2)C1` [Compound 171, ((2-(((S)-1-((S)-4-acetyl-2-((S)-2-phenylmorpholine-4-carbonyl)piperazin-1-yl)-3,3-dimethyl-1-oxobutan-2-yl)carbamoyl)benzo[b]thiophen-5-yl)difluoromethyl)phosphonic acid], the pKi at STAT5A was less than 5.00; on STAT6 protein it was 5.00 to 6.00.
As to `CC(=O)N1CCN(C(=O)[C@@H](NC(=O)c2cc3cc(C(F)(F)P(=O)(O)O)ccc3s2)C(C)(C)C)[C@H](C(=O)N2CCC[C@H](c3ccccc3)C2)C1` [Compound 175, ((2-(((S)-1-((S)-4-acetyl-2-((R)-3-phenylpiperidine-1-carbonyl)piperazin-1-yl)-3,3-dimethyl-1-oxobutan-2-yl)carbamoyl)benzo[b]thiophen-5-yl)difluoromethyl)phosphonic acid], the pKi on STAT5A is 5.00 to 6.00; at STAT6 protein, 6.00 to 7.00.

(Values after patent publication US20230295200A1 (REGENTS OF THE UNIVERSITY OF MICHIGAN, priority 2022, published 2023).)
